# According to PubChem BioAssay (NCI):
# Where “and” joins values, the source holds several entries; their conditions need not be identical. Equal values may be shown once.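 Where inhibition never reached the appropriate level, the endpoint shown equals the highest concentration tested. Otherwise, values were interpolated linearly from a five-concentration, 48-hour dose response in 96-well plates. Here, GI50 denotes the concentration required for 50% inhibition of growth. TGI: concentration producing complete growth inhibition.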
# Assays:
# Test in all cases: NCI-60 cell line screen, 48 h
# [1] = system: SR leukemia
# [2] = system: OVCAR-3 ovarian
# [3] = system: MOLT-4 leukemia
# [4] = system: TK-10 renal
# [5] = system: CCRF-CEM leukemia
# [6] = system: NCI-H226 lung
# [7] = system: BT-549 breast
# [8] = system: KM12 colon
# [9] = system: SF-268 CNS
# [10] = system: DU-145 prostate
# [11] = system: A549 NSCLC
# [12] = system: SNB-19 CNS
# [13] = system: HCT-116 colon
# [14] = system: OVCAR-5 ovarian
# [15] = system: SK-MEL-2 melanoma
# [16] = system: OVCAR-8 ovarian
# [17] = system: U251 CNS
# [18] = system: MDA-MB-435
# [19] = system: K-562 leukemia
# [20] = system: ACHN renal
# [21] = system: HCT-15 colon
# [22] = system: SK-MEL-5 melanoma
# [23] = system: COLO 205 colon
# [24] = system: OVCAR-4 ovarian
# [25] = system: SW-620 colon
# [26] = system: NCI/ADR-RES ovarian
# [27] = system: CAKI-1 renal
# [28] = system: IGROV1 ovarian
# [29] = system: RPMI-8226 leukemia
# [30] = system: SF-539 CNS
# [31] = system: MALME-3M melanoma
# [32] = system: UO-31 renal
# [33] = system: MCF7 breast
# [34] = system: SK-OV-3 ovarian
# [35] = system: UACC-62 melanoma
# [36] = system: HL-60(TB) leukemia
# [37] = system: 786-0 renal
# [38] = system: RXF 393 renal
# [39] = system: HOP-92 NSCLC
# [40] = system: A498 renal
# [41] = system: T-47D breast
# [42] = system: HT29 colon
# [43] = system: NCI-H460 lung
# [44] = system: PC-3 prostate
# [45] = system: SK-MEL-28 melanoma
# [46] = system: HS 578T breast
# [47] = system: LOX IMVI melanoma
# [48] = system: EKVX NSCLC
# [49] = system: NCI-H522 lung
# [50] = system: SF-295 CNS
# [51] = system: NCI-H23 lung
# [52] = system: UACC-257 melanoma
# [53] = system: MDA-MB-231 breast
# [54] = system: SNB-75 CNS
# [55] = system: SN12C renal
# [56] = system: HOP-62 NSCLC
# [57] = system: HCC-2998 colon
smiles,measurement,setting,value
CN(C)c1ccc2nc3ccc(N)cc3[n+](-c3ccccc3)c2c1,GI50,[1],2.44 µM and 0.533 µM
same,GI50,[2],0.474 µM and 0.317 µM
same,TGI,[2],9.02 µM and 12.7 µM
same,GI50,[3],5.14 µM and 0.703 µM
same,GI50,[4],3.87 µM and 2.48 µM
same,TGI,[4],27.4 µM and 28.4 µM
same,GI50,[5],4.09 µM and 1.25 µM
same,TGI,[5],> 100 µM and 21.7 µM
same,GI50,[6],8.77 µM and 13 µM
same,TGI,[6],42 µM and 70.1 µM
same,GI50,[7],2.46 µM and 0.584 µM
same,TGI,[7],14.2 µM and 61.9 µM
same,GI50,[8],1.75 µM and 1.51 µM
same,TGI,[8],10.2 µM and 26.1 µM
same,GI50,[9],1.94 µM and 1.7 µM
same,TGI,[9],20.9 µM and 19.7 µM
same,GI50,[10],5.32 µM and 1.95 µM
same,TGI,[10],33 µM and 3.96 µM
same,TGI,[11],> 100 µM and 11.6 µM
same,GI50,[12],1.69 µM
same,TGI,[12],47.1 µM
same,GI50,[13],2.89 µM and 0.42 µM
same,TGI,[13],20.4 µM and 2.08 µM
same,GI50,[14],13.3 µM
same,TGI,[14],> 81.7 µM
same,GI50,[15],2.39 µM and 1.74 µM
same,TGI,[15],6.16 µM and 11.1 µM
same,GI50,[16],2.02 µM and 1.07 µM
same,TGI,[16],> 66 µM and 7.69 µM
same,GI50,[17],1.35 µM and 0.64 µM
same,TGI,[17],34.4 µM and 6.5 µM
same,GI50,[18],1.79 µM and 1.09 µM
same,TGI,[18],8.77 µM and 2.91 µM
same,GI50,[19],1.51 µM and 0.424 µM
same,TGI,[19],> 100 µM and 68.7 µM
same,TGI,[20],76.9 µM and 31.8 µM
same,TGI,[21],> 100 µM and 24 µM
same,GI50,[22],1.07 µM and 0.255 µM
same,TGI,[22],3.02 µM and 0.827 µM
same,GI50,[23],0.759 µM and 0.598 µM
same,TGI,[23],2.99 µM and 2.75 µM
same,GI50,[24],0.396 µM and 0.28 µM
same,GI50,[25],2.98 µM and 1.18 µM
same,TGI,[25],31 µM and 12.2 µM
same,TGI,[26],> 100 µM and 11.9 µM
same,TGI,[27],52.8 µM and 7.47 µM
same,GI50,[28],3.31 µM and 1.74 µM
same,TGI,[28],39.3 µM and 5.53 µM
same,GI50,[29],0.482 µM and 0.177 µM
same,TGI,[29],7.4 µM and 10 µM
same,GI50,[30],2.61 µM and 0.332 µM
same,TGI,[30],13.5 µM and 6.59 µM
same,GI50,[31],1.57 µM and 0.56 µM
same,TGI,[31],10.1 µM and 4.59 µM
same,GI50,[32],23.6 µM and 4.98 µM
same,TGI,[32],> 100 µM and 24.8 µM
same,GI50,[33],0.519 µM and 0.369 µM
same,TGI,[33],30.3 µM and 3.15 µM
same,GI50,[34],18.2 µM and 4.73 µM
same,TGI,[34],67.3 µM and > 100 µM
same,GI50,[35],2.04 µM and 1.85 µM
same,TGI,[35],13 µM and 10.3 µM
same,GI50,[36],0.578 µM
same,TGI,[36],15.9 µM
same,GI50,[37],10.9 µM and 2.19 µM
same,TGI,[37],33.6 µM and 49.2 µM
same,GI50,[38],16.3 µM and 10.8 µM
same,TGI,[38],67.5 µM and 26.6 µM
same,GI50,[39],1.85 µM
same,TGI,[39],8.24 µM
same,GI50,[40],3.94 µM and 19.6 µM
same,TGI,[40],37.8 µM and > 100 µM
same,GI50,[41],0.457 µM and 0.662 µM
same,TGI,[41],6.5 µM and 21 µM
same,GI50,[42],2.74 µM and 3.19 µM
same,TGI,[42],16.1 µM and 16.2 µM
same,GI50,[43],2.53 µM and 1.9 µM
same,TGI,[43],11.4 µM and 11.2 µM
same,TGI,[44],31.2 µM and 3.22 µM
same,GI50,[45],3.76 µM and 7.38 µM
same,TGI,[45],20 µM and 37.7 µM
same,GI50,[46],3.24 µM and 2.93 µM
same,TGI,[46],28 µM and 56.2 µM
same,GI50,[47],2.65 µM and 0.515 µM
same,TGI,[47],18.3 µM
same,GI50,[48],1.39 µM and 0.87 µM
same,TGI,[48],23.1 µM and 23 µM
same,GI50,[49],1.72 µM
same,TGI,[49],10.5 µM
same,GI50,[50],1.75 µM and 0.584 µM
same,TGI,[50],7.41 µM and 24.4 µM
same,GI50,[51],1.73 µM and 0.461 µM
same,TGI,[51],19.8 µM and 5.1 µM
same,GI50,[52],0.757 µM and 0.705 µM
same,TGI,[52],> 25.2 µM and 3.33 µM
same,GI50,[53],4.61 µM and 0.492 µM
same,TGI,[53],31.5 µM and 17.1 µM
same,GI50,[54],2.44 µM and 2.8 µM
same,TGI,[54],17 µM and 9.52 µM
same,GI50,[55],1.92 µM and 1.34 µM
same,TGI,[55],46 µM and 10.4 µM
same,GI50,[56],2.31 µM and 2.92 µM
same,TGI,[56],18.9 µM and 14.4 µM
same,GI50,[57],1.87 µM and 9.25 µM
same,TGI,[57],16.1 µM and 41.8 µM
